The values that follow come from US7736909B2, “Methods and compositions comprising capture agents” (Board of Regents, the University of Texas System, priority 2003, dated 2010).

One data set has as its target ubiquitin (Homo sapiens, UniProt P0CG47). Briefly: pull-down of unlabeled ubiquitin by Tentagel-displayed peptide, probed with Texas Red-labeled anti-ubiquitin antibody. The format is binding. Particulars: semi-quantitative. How it is done:
To study the behavior of the ubiquitin-targeted chimeric binding element in capture assays, the peptide was synthesized on Tentagel and employed in “pull-down” assays. Beads displaying NH2-[…], a control peptide NH2-[…], or no peptide at all, were incubated with the indicated concentration of unlabeled ubiquitin in the presence of a 1000-fold excess of E. coli proteins (FIG. 26B). After thorough washing, the beads were then probed with Texas Red-labeled anti-ubiquitin-labeled polyclonal antibodies to visualize the bound protein. […] In all cases, the level of fluorescence from the chimeric binding element-displaying beads was much higher than from either set of control beads (see FIG. 26C for a direct comparison).

Data set [1] concerns the target T1, MBP-Mdm2 (UniProt P0AEX9+Q00987).
T1 construct: The domain of the human Mdm2 protein represented by residues 1-188 is a structurally characterized monomer; made in house; host or cells: E. coli BL21-RIL
The experiment in a line: isothermal titration calorimetry (ITC). The format is binding, human. As for the experimental part:
(§1) Isothermal titration calorimetry (ITC). ITC experiments were conducted on a MicroCal VP-ITC instrument. For the titration, 70 μM MBP-hmdm2 or 30 μM GST in PBS+10% DMSO was taken in the sample cell. To this, 15 μl aliquots of the peptoid solution in the same buffer were added from a computer-controlled 250 μl rotating syringe. The syringe was set at 400 rpm with intervals of 3 minutes between injections to attain baseline stabilization. The heat absorbed or released accompanying the titration was recorded as differential power (DP) by the instrument software. Experiments were carried out with C values between 1 and 400. The total heat recorded was then fitted via a non-linear least-squares minimization method. Titration of the ligand solution with the buffer alone gave the heats of dilution. Titration with MBP alone was recorded under identical conditions.
In general terms: In ITC the heat of successive injections is recorded.

In a further data set the target is T2, GST (Schistosoma japonicum, UniProt P08515).
T2 construct: made in house; host or cells: E. coli BL21-RIL
T2 sequence (P08515 whole entry): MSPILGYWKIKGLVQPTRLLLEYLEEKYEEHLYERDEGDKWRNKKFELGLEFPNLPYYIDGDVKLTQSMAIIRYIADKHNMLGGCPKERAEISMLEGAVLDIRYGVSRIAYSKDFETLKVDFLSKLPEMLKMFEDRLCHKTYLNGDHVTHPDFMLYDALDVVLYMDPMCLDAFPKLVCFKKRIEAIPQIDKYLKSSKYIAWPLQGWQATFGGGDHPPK
Briefly: isothermal titration calorimetry (ITC). The following applies: in solution; read-out: equilibrium dissociation constant, ITC. Format: binding. As for the experimental part:
as §1

The target of the next data set is MBP (Escherichia coli, UniProt P0AEX9). The experiment in a line: isothermal titration calorimetry (ITC), MBP alone. Format: binding. Particulars: in solution. How it is done:
as §1

The target of data set [2] is T1, MBP-Mdm2. Format: binding, human. How it is done:
Five milligrams of TentaGel beads (displaying the respective hit sequences, Nlys-Nbsa-Nlys-Nser-Nbsa-Npip-Nbsa-Npip-CONH2 and Nbsa-Nlys-Nbsa-Npip-Nlys-CONH2 or a random sequence Npip-Nser-Nbsa-Nall-Nlys-Npip-CONH2) were equilibrated in phosphate-buffered saline (PBS) for 60 minutes. The buffer was removed and the beads were blocked with 2% BSA for 60 minutes to saturate any non-specific binding sites. The beads were then washed with PBS (3 times), and incubated with 500 nM (unless indicated otherwise) of a Texas Red-labeled protein (MBP-MDM2 or GST) in 2% BSA (in 1×TBST buffer), in a 300 μL volume for 60 minutes. The beads were washed with TBST six times to remove any unbound protein and photographed under a fluorescence microscope. Studies that employed native (unlabeled) proteins were performed as follows. Ten milligrams of beads displaying the peptoid were exposed to 1 μM protein in the presence of 1000-fold excess E. coli lysate, 0.2% Tween-20 and 0.2 M NaCl in a total volume of 2 ml at RT for 2 hrs. The beads were washed three times with TBST (20 mM Tris buffered saline+0.1% Tween-20). Ten microliters of 2×SDS-PAGE loading dye was then added directly to these beads and they were boiled for 10 mins.
To probe the binding chemistry of chimeric binding ligand formula 2 on a solid support, which is more relevant to the issue of creating high affinity protein capture agents, TentaGel beads were prepared that display either chalcone formula 1 alone, the 10 mer peptoid NH2-Nlys-Npip-Nlys-Nser-Nlys-Nlys-Nlys-Nlys-Npip-Npip alone, or the chalcone-peptoid chimeric binding element of formula 2. In the experiment shown in FIG. 24D, the beads and the Texas Red-labeled proteins (100 nM) indicated in the figure were incubated under demanding buffer conditions (1M NaCl and 1% Tween-20 in the presence of a 100-fold excess of E. coli proteins), then washed thoroughly. Two populations of beads were then mixed in a 1:1 ratio and photographed under a fluorescence microscope to provide a direct comparison.
After thorough washing, the beads were photographed in the fluorescence microscope using identical settings in each case.

A further data set deals with T3, His6Gal80 (Saccharomyces cerevisiae, UniProt P04387).
T3 construct: His6 (N); made in house; host or cells: E. coli
T3 sequence (P04387 1-435): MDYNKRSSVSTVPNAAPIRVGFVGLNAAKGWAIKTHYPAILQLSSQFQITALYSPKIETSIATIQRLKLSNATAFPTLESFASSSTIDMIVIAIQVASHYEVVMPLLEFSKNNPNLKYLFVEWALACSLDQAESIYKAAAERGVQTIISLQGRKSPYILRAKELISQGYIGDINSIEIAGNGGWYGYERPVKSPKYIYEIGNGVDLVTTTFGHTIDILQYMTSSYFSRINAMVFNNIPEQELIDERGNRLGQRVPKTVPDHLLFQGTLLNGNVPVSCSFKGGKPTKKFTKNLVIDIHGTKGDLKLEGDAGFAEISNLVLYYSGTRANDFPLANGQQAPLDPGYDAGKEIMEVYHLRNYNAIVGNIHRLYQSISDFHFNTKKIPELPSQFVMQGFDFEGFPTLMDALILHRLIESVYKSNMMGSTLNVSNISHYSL
The experiment in a line: lysate experiment: specificity of capture from E. coli lysate (silver stain). Format: binding. Particulars: Gal80 5% of total protein, silver staining. As for the experimental part: Lysate Experiment. E. coli lysate was prepared by growing BL21 cells to an OD600 of 0.8. Cells were lysed by sonication in PBS buffer. After sonication, triton X-100 was added to 1%. His6Gal80 was doped into the E. coli lysate (67 μg/mL) such that it constituted 5% of the total protein. Approximately 0.02 g of Tentagel beads on which the Gal80-binding peptide had been synthesized and deprotected were added to 300 μL of the E. coli lysate containing His6Gal80 and incubated for 2 hours at 4° C. The beads were washed four times for ten minutes each time at 4 with PBS buffer+1% triton X-100 at 150 mM NaCl at 4° C. and then twice with PBS buffer. GSTGal4 AD (activation domain) was pre-incubated with glutathione sepharose beads and then used as a positive control to pull-down His6Gal80 from the lysate under the same conditions. Gel loading dye was added directly to the beads, loaded onto a SDS polyacrylamide gel and analyzed by silver stain.
To address this point, the Gal80 bp/Gal80 pair was again employed. His6Gal80 was doped into an E. coli lysate such that Gal80 represented 5% of the total protein concentration. This solution was then incubated with the Tentagel-bound Gal80 bp followed by thorough washing to remove any unbound material. The composition of the proteins captured by the peptide was then addressed by SDS-PAGE followed by silver staining. […]

Another data set in a line: solubility observations. Format: physicochemical.

Like-named read-outs stand apart in the source and are kept apart here. Non-standard residues stand in square brackets, D forms with d. Residues, ends and D or L forms follow the SMILES beside them. N(4-Sulfamoylphenethyl)Gly = NS(=O)(=O)c1ccc(CCNCC(=O)O)cc1; Gly(N-piperonyl) = O=C(O)CNCc1ccc2c(c1)OCO2; Gly(N-CH2CH2OH) = O=C(O)CNCCO; Nlys = NCCCCNCC(=O)O

T1 sequence (Q00987 whole entry, looked up, other chains not shown, the tested form may be a part): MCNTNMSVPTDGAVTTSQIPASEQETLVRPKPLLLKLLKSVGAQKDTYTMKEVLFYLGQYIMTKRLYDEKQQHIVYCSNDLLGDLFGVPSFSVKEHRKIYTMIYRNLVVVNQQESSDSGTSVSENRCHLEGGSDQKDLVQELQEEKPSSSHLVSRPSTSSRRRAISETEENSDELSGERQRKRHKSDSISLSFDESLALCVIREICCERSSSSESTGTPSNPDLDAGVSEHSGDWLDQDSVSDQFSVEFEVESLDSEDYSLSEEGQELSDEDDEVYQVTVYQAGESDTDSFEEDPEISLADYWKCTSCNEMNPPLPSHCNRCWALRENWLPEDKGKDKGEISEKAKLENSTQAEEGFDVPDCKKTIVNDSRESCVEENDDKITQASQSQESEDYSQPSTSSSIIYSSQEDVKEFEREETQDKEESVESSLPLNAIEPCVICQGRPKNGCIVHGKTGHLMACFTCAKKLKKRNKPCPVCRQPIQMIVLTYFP

For the compound `CC(C)C[C@H](NC(=O)CNC(=O)[C@@H](N)Cc1c[nH]c2ccccc12)C(=O)N[C@@H](CCCNC(=N)N)C(=O)N[C@@H](C)C(=O)N[C@@H](CC(C)C)C(=O)N[C@@H](CCC(=O)O)C(=O)N[C@@H](CO)C(=O)N[C@@H](CCCNC(=N)N)C(=O)N[C@@H](Cc1c[nH]c2ccccc12)C(=O)N[C@@H](CC(=O)O)C(=O)N[C@@H](CCCNC(=N)N)C(=O)N[C@@H](Cc1ccc(O)cc1)C(=O)N[C@@H](Cc1ccc(O)cc1)C(=O)N[C@@H](Cc1ccccc1)C(=O)O` (H-WGLRALESRWDRYYF-OH; C-terminus assumed), the “functional dissociation constant of immobilized chimeric binding element” value on ubiquitin is reported as “at least in the low nanomolar range”.
`NCCCCNCC(=O)N(CC(=O)N(CCCCN)CC(=O)N(CCO)CC(=O)N(CCCCN)CC(=O)N(CCCCN)CC(=O)N(CCCCN)CC(=O)N(CCCCN)CC(=O)N(CC(=O)N(CC(N)=O)Cc1ccc2c(c1)OCO2)Cc1ccc2c(c1)OCO2)Cc1ccc2c(c1)OCO2` [NH2-Nlys-Npip-Nlys-Nser-Nlys-Nlys-Nlys-Nlys-Npip-Npip] (H-[Nlys][Gly(N-piperonyl)][Nlys][Gly(N-CH2CH2OH)][Nlys][Nlys][Nlys][Nlys][Gly(N-piperonyl)][Gly(N-piperonyl)]-NH2; N-terminus and C-terminus assumed): the Kd on MBP-Mdm2 [1] turned out to be 378 µM.
As for `NCCCCN(CC(N)=O)C(=O)CN(Cc1ccc2c(c1)OCO2)C(=O)CN(CCc1ccc(S(N)(=O)=O)cc1)C(=O)CN(CCCCN)C(=O)CNCCc1ccc(S(N)(=O)=O)cc1` [Nbsa-Nlys-Nbsa-Npip-Nlys-CONH2] (H-[N(4-Sulfamoylphenethyl)Gly][Nlys][N(4-Sulfamoylphenethyl)Gly][Gly(N-piperonyl)][Nlys]-NH2), on GST, the Kd amounted to 62 µM.
`NCCCCNCC(=O)N(CCc1ccc(S(N)(=O)=O)cc1)CC(=O)N(CCCCN)CC(=O)N(CCO)CC(=O)N(CCc1ccc(S(N)(=O)=O)cc1)CC(=O)N(CC(=O)N(CCc1ccc(S(N)(=O)=O)cc1)CC(=O)N(CC(N)=O)Cc1ccc2c(c1)OCO2)Cc1ccc2c(c1)OCO2` [Nlys-Nbsa-Nlys-Nser-Nbsa-Npip-Nbsa-Npip] (H-[Nlys][N(4-Sulfamoylphenethyl)Gly][Nlys][Gly(N-CH2CH2OH)][N(4-Sulfamoylphenethyl)Gly][Gly(N-piperonyl)][N(4-Sulfamoylphenethyl)Gly][Gly(N-piperonyl)]-NH2): the results for the Kd at MBP-Mdm2 [1] and at MBP were 37 µM and above 1000 µM, respectively. Further, on MBP-Mdm2 [2] (native protein 1 μM, 1000-fold excess E. coli proteins, Western blot), the “MBP-Mdm2 protein retained by immobilized peptoid” value is listed as “about 10%”.
On to DLQRDTNKGFHEMFDWDYQN [Ga180bpscram], for which the “proteins retained from Gal80-doped E. coli lysate” value in the data set with His6Gal80 was “No detectable proteins were retained”.
Regarding “NH2-Lys(Chalcone)-Nlys-Npip-Nlys-Nser-Nlys-Nlys-Nlys-Nlys-Npip-Npip [formula 2]”, the Kd on MBP-Mdm2 [1] (in solution, read-out: equilibrium dissociation constant (KD), ITC) is 1.3 µM; at MBP it was above 6000 µM. For the same compound, at MBP-Mdm2 [1] (solution, ITC), the “improvement in affinity relative to parent compound formula 1” value is “at least 170 fold”. Also, on MBP-Mdm2 [2] (100 nM protein, 1M NaCl, 1% Tween-20, 100-fold excess E. coli proteins), the “solid phase MBP-Mdm2 affinity relative to components” value is “higher affinity for Mdm2 than does either individual component of the chimera”. For the same compound, the “lowest protein concentration at which capture of Mdm2 was apparent” value at MBP-Mdm2 [2] (150 mM NaCl, 0.1% detergent, 100-fold excess E. coli proteins) was found to be 10 nM.
For “Nmba-Nbsa-Nleu-Nlys-Npip-Nmba-Nleu-Nleu [random peptoid, reference compound]”, the “native MBP-Mdm2 retained” value on MBP-Mdm2 [2] (1000-fold excess E. coli proteins, Western blot) is “No detectable MBP-Mdm2 protein was retained”.
“PREbp: Pre1 binding peptide isolated by phage display, free synthetic peptide before six polar amino acids were added (SHSTARGEQERAAVYLWFTYDHRSER)”: the solubility result in the data set “solubility observations” is recorded as “insoluble”.
